According to ChEMBL document CHEMBL3885881, “DrugMatrix”:

Species on record: Rattus norvegicus
Assay: DrugMatrix - Regimen: Daily Repeat
Format: toxicity, organism-based, Sprague-Dawley
Parameters: regimen Daily Repeat, gender Male, age 6-8 weeks
Details: in vivo, po, route oral GAVAGE, vehicle .5 % CMC; for ABSOLUTE BASOPHIL / ABSOLUTE EOSINOPHIL / ABSOLUTE LYMPHOCYTE / ABSOLUTE MONOCYTE / ABSOLUTE SEGMENTED NEUTROPHIL / BASOPHIL / EOSINOPHIL / ERYTHROCYTE COUNT / HEMATOCRIT / HEMOGLOBIN / LEUKOCYTE COUNT / LYMPHOCYTE / MEAN CORPUSCULAR HEMOGLOBIN / MEAN CORPUSCULAR HEMOGLOBIN CONCENTRATION / MEAN CORPUSCULAR VOLUME / MONOCYTE / NEUTROPHIL / NUCLEATED RED BLOOD CELLS / PLATELET COUNT: tissue Blood; for ALANINE AMINOTRANSFERASE / ALBUMIN / ALKALINE PHOSPHATASE / ASPARTATE AMINOTRANSFERASE / BLOOD UREA NITROGEN / CARBON DIOXIDE / CHLORIDE / CHOLESTEROL / CREATINE PHOSPHOKINASE / CREATININE / GLUCOSE / LACTATE DEHYDROGENASE / LIPASE / PHOSPHORUS / POTASSIUM / SODIUM / TOTAL BILIRUBIN / TOTAL PROTEIN / URIC ACID: tissue Plasma
[1] = 0 mg/kg, 72 h, dose level Control, time 3 day
[2] = 0 mg/kg, 120 h, dose level Control, time 5 day
[3] = 15 mg/kg, 72 h, dose level Low, time 3 day

For `COC(=O)c1ccc(O)cc1` [METHYLPARABEN], the “ABSOLUTE BASOPHIL” value [1] was 0 CELLS/uL, the “ABSOLUTE EOSINOPHIL” value [1] was 0 CELLS/uL and the “ABSOLUTE LYMPHOCYTE” value [1] was 10913.67 CELLS/uL. The “ABSOLUTE MONOCYTE” value [1] was 85.33 CELLS/uL, the “ABSOLUTE SEGMENTED NEUTROPHIL” value [1] was 1401 CELLS/uL and the BASOPHIL [1] was 0%. The EOSINOPHIL [1] was 0%, the “ERYTHROCYTE COUNT” value [1] was 5.57 x10E6/uL and the HEMATOCRIT [1] was 35.58%. For the same molecule, the HEMOGLOBIN [1] was 13.8 G/DL, the “LEUKOCYTE COUNT” value [1] was 12.4 x10E3/uL and the LYMPHOCYTE [1] was 88%. For the same molecule, the “MEAN CORPUSCULAR HEMOGLOBIN” value [1] was 24.78 pg, the “MEAN CORPUSCULAR HEMOGLOBIN CONCENTRATION” value [1] was 38.82 G/DL and the “MEAN CORPUSCULAR VOLUME” value [1] was 63.88 fL. For the same molecule, the MONOCYTE [1] was 0.67%, the NEUTROPHIL [1] was 11.33% and the “NUCLEATED RED BLOOD CELLS” value [1] was 0 /100WBC. The “PLATELET COUNT” value [1] was 1162.33 x10E3/uL, the “ALANINE AMINOTRANSFERASE” value [1] was 53 u/L and the ALBUMIN [1] was 4.17 G/DL. The “ALKALINE PHOSPHATASE” value [1] was 374.5 u/L, the “ASPARTATE AMINOTRANSFERASE” value [1] was 89.5 u/L and the “BLOOD UREA NITROGEN” value [1] was 16.33 mg/dL. For the same molecule, the “CARBON DIOXIDE” value [1] was 29.17 mmol/L, the CHLORIDE [1] was 97.67 MEQ/L and the CHOLESTEROL [1] was 77 mg/dL. The “CREATINE PHOSPHOKINASE” value [1] was 464.83 u/L, the CREATININE [1] was 0.14 mg/dL and the GLUCOSE [1] was 164 mg/dL. For the same molecule, the “LACTATE DEHYDROGENASE” value [1] was 155.5 u/L, the LIPASE [1] was 9.17 u/L and the PHOSPHORUS [1] was 12.4 mg/dL. The POTASSIUM [1] was 6.91 MEQ/L, the SODIUM [1] was 141.47 MEQ/L and the “TOTAL BILIRUBIN” value [1] was 0.2 mg/dL. The “TOTAL PROTEIN” value [1] was 5.95 G/DL, the “URIC ACID” value [1] was 1.72 mg/dL and the “ABSOLUTE BASOPHIL” value [2] was 0 CELLS/uL. For the same molecule, the “ABSOLUTE EOSINOPHIL” value [2] was 20.5 CELLS/uL, the “ABSOLUTE LYMPHOCYTE” value [2] was 13871.67 CELLS/uL and the “ABSOLUTE MONOCYTE” value [2] was 60.5 CELLS/uL. The “ABSOLUTE SEGMENTED NEUTROPHIL” value [2] was 980.67 CELLS/uL, the BASOPHIL [2] was 0% and the EOSINOPHIL [2] was 0.17%. The “ERYTHROCYTE COUNT” value [2] was 5.65 x10E6/uL, the HEMATOCRIT [2] was 35.63% and the HEMOGLOBIN [2] was 14.08 G/DL. The “LEUKOCYTE COUNT” value [2] was 14.93 x10E3/uL, the LYMPHOCYTE [2] was 92.83% and the “MEAN CORPUSCULAR HEMOGLOBIN” value [2] was 24.97 pg. The “MEAN CORPUSCULAR HEMOGLOBIN CONCENTRATION” value [2] was 39.55 G/DL, the “MEAN CORPUSCULAR VOLUME” value [2] was 63.13 fL and the MONOCYTE [2] was 0.33%. The NEUTROPHIL [2] was 6.67%, the “NUCLEATED RED BLOOD CELLS” value [2] was 0 /100WBC and the “PLATELET COUNT” value [2] was 1248.17 x10E3/uL. For the same molecule, the “ALANINE AMINOTRANSFERASE” value [2] was 45.17 u/L, the ALBUMIN [2] was 4.27 G/DL and the “ALKALINE PHOSPHATASE” value [2] was 405.67 u/L. For the same molecule, the “ASPARTATE AMINOTRANSFERASE” value [2] was 74.17 u/L, the “BLOOD UREA NITROGEN” value [2] was 15.5 mg/dL and the “CARBON DIOXIDE” value [2] was 30.17 mmol/L. For the same molecule, the CHLORIDE [2] was 100.67 MEQ/L, the CHOLESTEROL [2] was 57 mg/dL and the “CREATINE PHOSPHOKINASE” value [2] was 239.5 u/L. The CREATININE [2] was 0.17 mg/dL, the GLUCOSE [2] was 165.67 mg/dL and the “LACTATE DEHYDROGENASE” value [2] was 90.5 u/L. It also gave an LIPASE [2] of 8.83 u/L, a PHOSPHORUS [2] of 12.32 mg/dL and a POTASSIUM [2] of 7.03 MEQ/L. For the same molecule, the SODIUM [2] was 142.65 MEQ/L, the “TOTAL BILIRUBIN” value [2] was 0.18 mg/dL and the “TOTAL PROTEIN” value [2] was 6.03 G/DL. For the same molecule, the “URIC ACID” value [2] was 1.98 mg/dL, the “ABSOLUTE BASOPHIL” value [3] was 0 CELLS/uL and the “ABSOLUTE EOSINOPHIL” value [3] was 0 CELLS/uL. The “ABSOLUTE LYMPHOCYTE” value [3] was 13173.33 CELLS/uL, the “ABSOLUTE MONOCYTE” value [3] was 95.67 CELLS/uL and the “ABSOLUTE SEGMENTED NEUTROPHIL” value [3] was 1364.33 CELLS/uL. The BASOPHIL [3] was 0%, the EOSINOPHIL [3] was 0% and the “ERYTHROCYTE COUNT” value [3] was 5.6 x10E6/uL. The HEMATOCRIT [3] was 37.1%, the HEMOGLOBIN [3] was 14.57 G/DL and the “LEUKOCYTE COUNT” value [3] was 14.63 x10E3/uL. For the same molecule, the LYMPHOCYTE [3] was 90%, the “MEAN CORPUSCULAR HEMOGLOBIN” value [3] was 26.03 pg and the “MEAN CORPUSCULAR HEMOGLOBIN CONCENTRATION” value [3] was 39.27 G/DL. The “MEAN CORPUSCULAR VOLUME” value [3] was 66.23 fL, the MONOCYTE [3] was 0.67% and the NEUTROPHIL [3] was 9.33%. The “NUCLEATED RED BLOOD CELLS” value [3] was 0.67 /100WBC, the “PLATELET COUNT” value [3] was 1171 x10E3/uL and the “ALANINE AMINOTRANSFERASE” value [3] was 56.67 u/L. The ALBUMIN [3] was 4.2 G/DL, the “ALKALINE PHOSPHATASE” value [3] was 324 u/L and the “ASPARTATE AMINOTRANSFERASE” value [3] was 86 u/L. The “BLOOD UREA NITROGEN” value [3] was 16.33 mg/dL, the “CARBON DIOXIDE” value [3] was 26.67 mmol/L and the CHLORIDE [3] was 98.67 MEQ/L. For the same molecule, the CHOLESTEROL [3] was 78 mg/dL, the “CREATINE PHOSPHOKINASE” value [3] was 194 u/L and the CREATININE [3] was 0.14 mg/dL. The GLUCOSE [3] was 149.67 mg/dL, the “LACTATE DEHYDROGENASE” value [3] was 120 u/L and the LIPASE [3] was 9.33 u/L. For the same molecule, the PHOSPHORUS [3] was 14.03 mg/dL, the POTASSIUM [3] was 6.83 MEQ/L and the SODIUM [3] was 143.63 MEQ/L. The “TOTAL BILIRUBIN” value [3] was 0.23 mg/dL, the “TOTAL PROTEIN” value [3] was 5.9 G/DL and the “URIC ACID” value [3] was 1.83 mg/dL.
